Test [1] concerns the target T1, GRF4 (Homo sapiens, UniProt Q9Y4G8).
T1 construct: Flag, HA or myc tags was added to the N-terminus of full length GRF4 using PCR; expressed in transfected cells; host or cells: HEK-293T
T1 sequence (Q9Y4G8 1-1499): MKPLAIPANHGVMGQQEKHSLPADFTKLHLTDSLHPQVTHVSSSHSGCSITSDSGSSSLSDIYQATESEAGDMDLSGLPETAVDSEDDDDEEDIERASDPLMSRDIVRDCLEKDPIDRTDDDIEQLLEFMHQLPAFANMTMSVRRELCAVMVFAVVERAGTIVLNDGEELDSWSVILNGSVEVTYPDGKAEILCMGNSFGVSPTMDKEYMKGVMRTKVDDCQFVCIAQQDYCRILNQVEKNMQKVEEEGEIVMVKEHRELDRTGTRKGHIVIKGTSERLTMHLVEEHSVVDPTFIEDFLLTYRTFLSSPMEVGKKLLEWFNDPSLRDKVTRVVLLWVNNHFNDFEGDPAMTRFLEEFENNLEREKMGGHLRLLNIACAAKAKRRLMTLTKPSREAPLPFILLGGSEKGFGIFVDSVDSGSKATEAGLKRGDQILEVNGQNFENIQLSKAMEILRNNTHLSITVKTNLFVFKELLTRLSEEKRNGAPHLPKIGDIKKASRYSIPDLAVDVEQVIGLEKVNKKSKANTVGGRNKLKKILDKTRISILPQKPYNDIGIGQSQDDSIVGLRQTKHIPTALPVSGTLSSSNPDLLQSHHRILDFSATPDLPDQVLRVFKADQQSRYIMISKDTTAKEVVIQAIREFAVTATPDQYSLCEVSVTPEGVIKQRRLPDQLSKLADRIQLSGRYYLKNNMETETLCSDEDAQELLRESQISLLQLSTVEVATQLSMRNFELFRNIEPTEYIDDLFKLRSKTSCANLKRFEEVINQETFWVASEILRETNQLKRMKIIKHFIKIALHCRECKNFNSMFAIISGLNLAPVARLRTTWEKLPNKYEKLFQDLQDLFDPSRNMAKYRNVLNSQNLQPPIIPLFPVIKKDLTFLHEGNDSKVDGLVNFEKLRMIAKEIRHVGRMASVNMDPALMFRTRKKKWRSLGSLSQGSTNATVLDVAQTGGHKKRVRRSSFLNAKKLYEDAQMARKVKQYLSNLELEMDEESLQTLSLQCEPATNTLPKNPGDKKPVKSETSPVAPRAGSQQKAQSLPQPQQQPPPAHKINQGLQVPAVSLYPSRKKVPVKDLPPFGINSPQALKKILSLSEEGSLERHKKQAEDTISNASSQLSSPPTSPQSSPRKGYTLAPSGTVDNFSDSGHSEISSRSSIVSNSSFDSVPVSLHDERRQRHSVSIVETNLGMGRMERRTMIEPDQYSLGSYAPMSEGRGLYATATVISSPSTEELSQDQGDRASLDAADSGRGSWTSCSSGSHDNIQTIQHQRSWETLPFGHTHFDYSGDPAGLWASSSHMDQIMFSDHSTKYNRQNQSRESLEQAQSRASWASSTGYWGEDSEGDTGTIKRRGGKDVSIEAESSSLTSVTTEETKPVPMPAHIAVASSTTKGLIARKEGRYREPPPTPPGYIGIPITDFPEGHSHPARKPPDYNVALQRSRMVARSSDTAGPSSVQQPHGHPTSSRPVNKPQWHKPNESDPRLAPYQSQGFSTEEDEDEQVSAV
The test is described as follows: Ras activation assay in living cells (GST-Raf1-RBD pull-down), treatment of GRF4-transfected cells. It is filed as cell-based. Particulars: for cAMP stimulation of GRF4-mediated activation of Ras in the presence of PKA inhibitor: H-89 10 μM or Rp-8-Br-cAMPS 50 μM, then 8-Br-cAMP 500 μM; for cAMP stimulation of GRF4-mediated activation of Ras in the presence of PKA inhibitor / Effect of PKG inhibitor on 8-Br-cGMP enhanced activation of Ras by GRF4: 30 min; for GRF4 stimulation of Ras activation enhanced following treatment / Enhancement of activation of Ras by GRF4 by membrane permeable cNMP analogue: HEK-293T cells transfected with Flag-GRF4; for Enhancement of activation of Ras by GRF4 by membrane permeable cNMP analogue: analogue 500 μM; for Effect of PKG inhibitor on 8-Br-cGMP enhanced activation of Ras by GRF4: H-8 5 μM or Rp-8-Br-cGMPS 25 μM, then 8-Br-cGMP 500 μM. The protocol:
Cells were then lysed and lysate incubated with immobilized Ras binding domain (RBD) of Raf1 (GST-Raf1-RBD), which binds activated (GTP-bound) Ras. Co-precipitated activated ras was then detected with anti Ras antibodies (Quality Biotech) (upper panel). Lower 2 panels depict the amounts of total endogenous Ras and of the transfected GRF4 (detected with anti Ras and anti Flag antibodies, respectively).
Cells were transfected (or not) with Flag-GRF4 and serum-starved overnight as in (a) above, pre-treated (or not) with the PKG inhibitors H8 (5 μM) or Rp-cGMPS (25 μM) and then treated (or not) with the cGMP analogue 8-Br-cGMP (500 μM), as in (a) above. Activated Ras was then precipitated with GST-Raf1-RBD (upper panel), as in (a). Lower panels show total endogenous Ras and GRF4 expressed in the cells.
Parallel treatments with 8-Br-cAMP or 8-Br-cGMP were used as positive controls. Lysates of treated cells were then incubated with GST-Raf1-RBD to precipitate activated Ras, and immunoblotted with anti Ras antibodies, as above (upper panel). Lower panels are as in (a) and (b) above.
The membrane permeable 8-Br-cAMP and 8Br-cGMP analogs (Sigma) were used at a concenreation of 500 μM for 15 min. Inhibitors of PKA: H-89 and Rp-8-Br-cAMPS (CalBiochem) were used at 10 μM and 50 μM, respectively, for 30 min. Inhibitors of PKG: H-8 and Rp-8-Br-cGMPS (CalBiochem) were used at 5 μM and 25 μM, respectively, for 30 min. Activators of Adenylyl Cyclase, Forskolin (Sigma), and activator of Guanylyl Cyclase, YC-1 (CalBiochem), were used at 50 μM and 100 μM, respectively, for 15 min.
(§1) HEK-293T cells were transfected as above, serum starved overnight and then subjected to various treatments, as described in the text. Cells were lysed with lysis buffer (25 mM Hepes, pH 7.5, 150 mM NaCl, 1% NP-40, 0.25% Na deoxycholate, 10% glycerol, 25 mM NaF, 10 mM MgCl2, 1 mM EDTA, 1 mM NaVO4, […]) and the level of Ras.GTP or Rap. GTP in the lysates was determined using activation specific probes as described. Briefly, to determined the levels of active Ras (Ras-GTP) in cell, sepharose-bound GST fusion protein of the Ras-binding domain (RBD) of Raf-1 (GST-Raf1-RBD; Upstate Biotechnology Inc.) was used to precipitate Ras-GTP from cell lysates, and the amount of Ras-GTP determined by immunoblotting with anti Ras antibodies (Quality Biotech). Similarly, to determine the level of Rap1-GTP in cell lysates, sepharose-bound GST fusion proteins of the Rap1-binding domain of RaIGDS (GST-RaIGDS-RBD) were used to precipitate Rap1-GTP, which was then detected on a Western blot using anti-Rap1 antibodies (Transduction Lab).

The target of the next test is T2, GRF4-cNMP-BD (Homo sapiens, UniProt Q9Y4G8).
T2 construct: The GST-GRF4-cNMP-BD (residue 101-303); made in house
T2 sequence (Q9Y4G8 101-303): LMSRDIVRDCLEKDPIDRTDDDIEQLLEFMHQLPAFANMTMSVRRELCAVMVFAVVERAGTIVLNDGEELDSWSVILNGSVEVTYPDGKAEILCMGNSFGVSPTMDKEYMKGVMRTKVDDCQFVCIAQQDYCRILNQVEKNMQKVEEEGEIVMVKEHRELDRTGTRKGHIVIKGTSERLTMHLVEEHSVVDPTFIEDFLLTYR
Nature of the test: cAMP-agarose binding assay. Conditions: data not shown. The protocol:
Right and left panels in (b) represent two separate experiments.
Following extensive washes in HNTG (20 mM Hepes, pH 7.5, 150 mM NaCl, 0.1% Triton ×100, 10% Glycerol) proteins were eluted off beads with sample buffer, separated on SDS-PAGE and immunoblotted with either anti GST antibodies for the in vitro binding experiments, or with anti GRF4 antibodies for the pull down experiments.

The next test has as its system Rap1. Nature of the test: Rap1 activation assay in living cells (GST-RalGDS-RBD pull-down). It is filed as cell-based, human. Conditions: HEK-293T cells expressing GRF4. The protocol:
as §1

The target in test [2] is T1, GRF4. The test is described as follows: Activation of Ras and MAPK by cNMP analogues in GRF4-transfected HEK-293T cells. The test is classed as cell-based. Conditions: HEK-293T cells transfected with GRF4; not in untransfected cells. As for the experimental part: The small GTPase Ras controls the MAPK pathway and exerts its effects on cellular processes primarily through this pathway. MAPK is a downstream kinase of Ras and thus, Ras activation leads to MAPK activation (FIG. 6A). Therefore, we show the GRF4 effects on MAPK activation using assays in which levels of active MAPK in cells is determined using antibodies recognizing phosphorylated (active) MAPK.

For the compound `Nc1ncnc2c1nc(Br)n2C1OC2COP(O)(=S)OC2C1O` (single isomer, unassigned) [Rp8-Br-cAMPS, Adenosine 3′,5′-cyclic monophosphorothioate, 8-Bromo-, Rp-isomer], the “cAMP stimulation of GRF4-mediated activation of Ras in the presence of PKA inhibitor” value on GRF4 [1] was “still able to stimulate”.
For the compound `Nc1nc2c(ncn2[C@@H]2O[C@@H]3COP(=O)(O)O[C@H]3[C@H]2O)c(=O)[nH]1` [cGMP, reference compound], the “Competition of cAMP binding to the GRF4-cNMP-BD” value on GRF4-cNMP-BD is on record as “effectively competed”.
For the compound `Nc1ncnc2c1nc(Br)n2[C@@H]1O[C@@H]2COP(=O)(O)O[C@H]2[C@H]1O` [8-Br-cAMP], the “GRF4 stimulation of Ras activation enhanced following treatment” value at GRF4 [1] (8-Br-cAMP 500 μM 15 min plus H-89 10 μM 30 min pre-treatment) is reported as 3.5 fold; at GRF4 [1] (8-Br-cAMP 500 μM, 15 min), 3.9 fold. Also, the “Enhancement of activation of Ras by GRF4 by membrane permeable cNMP analogue” value at GRF4 [1] (15 min) was “greatly enhanced”. Further, the “Stimulation of GRF4-mediated activation of Rap1” value in the test on Rap1 is “not stimulated”. Besides, the “Activation of Ras and of MAPK in GRF4-expressing cells” value at GRF4 [2] is listed as “leads to activation”.
Consider `Nc1nc2c(nc(Br)n2[C@@H]2O[C@@H]3COP(O)(=S)O[C@H]3[C@H]2O)c(=O)[nH]1` (single isomer, unassigned) [RP8-Br-cGMPS, Guanosine 3′,5′-cyclic monophosphorothioate, 8-Bromo-, Rp-isomer], for which, on GRF4 [1], the “Effect of PKG inhibitor on 8-Br-cGMP enhanced activation of Ras by GRF4” value is on record as “lack of effect”.
Regarding `O=S(=O)(NCCNCC=Cc1ccc(Br)cc1)c1cccc2cnccc12` [H-89, N-[2-((Pbromocinnamyi)amino)ethyl]-5-isoquinoiinesulfonamide], on GRF4 [1], the “cAMP stimulation of GRF4-mediated activation of Ras in the presence of PKA inhibitor” value was “still able to stimulate”.
Regarding `Nc1nc2c(nc(Br)n2[C@@H]2O[C@@H]3COP(=O)(O)O[C@H]3[C@H]2O)c(=O)[nH]1` [8-Br-cGMP], the “Enhancement of activation of Ras by GRF4 by membrane permeable cNMP analogue” value at GRF4 [1] (15 min) is “greatly enhance”. Also, the “Activation of Ras and of MAPK in GRF4-expressing cells” value on GRF4 [2] is “leads to activation”.
As for `CNCCNS(=O)(=O)c1cccc2cnccc12` [H-8, N-[2-(methylamino)ethyl]-5-isoquinolinesulfonamide], the “Effect of PKG inhibitor on 8-Br-cGMP enhanced activation of Ras by GRF4” value on GRF4 [1] is on record as “lack of effect”.

The record behind these values is patent publication US20020143164A1, “Ras activator nucleic acid molecules, polypeptides and methods of use” (priority 1999, published 2002).
